The source of these data is PMC9699003, “Arene Variation of Highly Cytotoxic Tridentate Naphthoquinone-Based Ruthenium(II) Complexes and In-Depth In Vitro Studies” (Pharmaceutics, 2022).

For test [1], the system named is A549 non-small cell lung cancer cells. Conditions: A549, MTT, 96 h exposure; cited from earlier work.
Test [2] deals with SW480 colon carcinoma cells. Conditions: SW480, MTT, 96 h exposure; cited from earlier work.
For test [3], the system named is CH1/PA-1 ovarian teratocarcinoma cells. Conditions: CH1/PA-1, MTT, 96 h exposure; cited from earlier work.
Test [4] relates to A549 non-small cell lung cancer cells. Kind of test: MTT assay (cytotoxicity). Type of test: cell-based, human. Conditions: 96 h exposure. As for the experimental part:
(§1) CH1/PA-1 ovarian teratocarcinoma cells (provided by L. R. Kelland, CRC Centre for Cancer Therapeutics, Institute of Cancer Research, Sutton, UK; confirmed by STR profiling as PA-1 ovarian teratocarcinoma cells at Multiplexion, Heidelberg, Germany), SW480 colon carcinoma and A549 non-small cell lung cancer cells (both obtained from the American Type Culture Collection, Manassas, VA, USA) were grown as adherent cultures in 75 cm² culture flasks (CytoOne, Starlab, Hamburg, Germany) by using minimal essential medium (MEM) supplemented with 1 mM sodium pyruvate, 4 mM L-glutamine, 1% (v/v) nonessential amino acids from 100-fold stock (all purchased from Sigma-Aldrich) and 10% heat-inactivated fetal bovine serum (BioWest, Nuaillé, France). Cells were maintained under standard culture conditions with 5% CO2 at 37 °C in a humidified atmosphere.
(§2) The 3-(4,5-dimethylthiazol-2-yl)-2,5-diphenyl-2H-tetrazolium bromide (MTT, Acros Organics, Geel, Belgium) assay was used to detect the cytotoxicity of the compounds after 24 h and 96 h incubation. In brief, cells were harvested from culture flasks and the following cell numbers (each in 100 µL) were seeded into 96-well culture plates (CytoOne, tissue culture treated, Starlab, Hamburg, Germany) for 24 h incubation: 1 × 10^4 (CH1/PA-1), 1 × 10^4 (SW480) and 1.5 × 10^4 (A549) cells per well; and for 96 h incubation: 1 × 10^3 (CH1/PA-1), 2 × 10^3 (SW480) and 3 × 10^3 (A549) cells per well. After 24 h, cells resuming their exponential growth rate were treated with test compounds at nine concentrations obtained by serial two-fold dilution. Stock solutions were prepared in DMSO (20 mM or 40 mM) and diluted in supplemented MEM. An amount of 100 µL of each concentration was added to the plates in triplicates and cells were exposed for 24 or 96 h. Afterward, the medium was replaced with 100 µL of MTT solution (5 mg/mL) in phosphate-buffered saline (PBS, Sigma-Aldrich), diluted 1:7 in RPMI 1640 medium (supplemented with 4 mM L-glutamine and 10% heat-inactivated FBS). Upon cell-viability-dependent conversion of the yellow, water-soluble tetrazolium salt into purple formazan products for 4 h, the crystals were dissolved in 150 µL DMSO. The absorbance of the resulting solutions, which is directly proportional to the number of viable cells, was measured at 550 nm (and at 690 nm as a reference) with a microplate reader (ELx808, BioTek, Winoosky, VT, USA) and Gen5TM 3.08 software (BioTek). Blank-corrected optical densities were subjected to graphical evaluation and interpolation of IC50 values. At least three biologically and technically independent experiments were performed.
(Tetrazolium assays rely on reduction of a dye to a coloured formazan, in cell work by metabolically active cells.)

The subject of test [5] is CH1/PA-1 ovarian teratocarcinoma cells. Description: MTT assay (cytotoxicity). It is filed as cell-based, human. Conditions: CH1/PA-1, MTT, 96 h exposure. As for the experimental part: as §1, §2
The subject of test [6] is SW480 colon carcinoma cells. Description: MTT assay (cytotoxicity). To be noted: 96 h exposure. Type of test: cell-based, human. The method, then:
as §1, §2

Molecules are shown by their SMILES. Where two headings read alike, the source gives them in different places. Bounds are passed on as bounds.

One may read the IC50 as the concentration that gives 50% inhibition. Turning to `N.N.O=C([O-])C1(C(=O)[O-])CCC1.[Pt+2]` [Carboplatin], the 50% inhibitory concentration (IC50) is 38 ± 3 µM in test [1], 42 ± 10 µM in test [2] and 0.79 ± 0.11 µM in test [3].

As to `N.N.[Cl][Pt][Cl]` [Cisplatin, reference compound], the results for the IC50 in test [4], in test [5] and in test [6] were 3.8 ± 1 µM, 0.073 ± 0.001 µM and 2.3 ± 0.2 µM, respectively.

On to `O=C1[O][Pt]2([NH][C@@H]3CCCC[C@H]3[NH]2)[O]C1=O` [Oxaliplatin], for which the results for the IC50 in test [1], in test [2] and in test [3] were 0.98 ± 0.21 µM, 0.29 ± 0.05 µM and 0.18 ± 0.01 µM, respectively.

On to `[Cl][Ru][Cl].[Cl][Ru][Cl].c1ccccc1.c1ccccc1` [[Ru(benzene)Cl2]2], for which the IC50 in test [1], in test [2] and in test [3] was above 100 µM throughout.

On to `[Cl][Ru-]1[Cl+][Ru-]([Cl])[Cl+]1.c1ccc2c(c1)CCC2.c1ccc2c(c1)CCC2` [[Ru(indane)Cl2]2], for which the IC50 was 257 ± 66 µM in test [1], 166 ± 35 µM in test [2] and 51 ± 13 µM in test [3].

`Cc1ccccc1.Cc1ccccc1.[Cl][Ru-]1[Cl+][Ru-]([Cl])[Cl+]1` [[Ru(toluene)Cl2]2]: the IC50 in test [1], in test [2] and in test [3] was above 100 µM throughout.
